{
  "source": "patent US20090082337A1",
  "about": "“Compositions Comprising Quinolone and Methods for Treating or Controlling Infections” (priority 2007, published 2009)",
  "test_in_all_cases": "In vitro anti-bacterial activity (MIC90), ophthalmologic clinical bacteria isolates",
  "type_in_all_cases": "cell-based",
  "key": {"Moraxella species": {"system": "Moraxella species", "conditions": "Gram-negative"}, "Pseudomonas aeruginosa": {"system": "Pseudomonas aeruginosa", "conditions": "Gram-negative"}, "Haemophilus influenzae": {"system": "Haemophilus influenzae", "conditions": "Gram-negative"}, "Staphylococcus aureus": {"system": "Staphylococcus aureus", "conditions": "Gram-positive"}, "[1]": {"system": "Coagulase-negative Staphylococcus", "conditions": "Gram-positive"}, "Streptococcus pneumoniae": {"system": "Streptococcus pneumoniae", "conditions": "Gram-positive"}, "Corynebacterium species": {"system": "Corynebacterium species", "conditions": "Gram-positive", "from_the_text": "As disclosed above, most of these bacteria strains are also relevant to infections of the ear and upper respiratory tract."}, "Propionibacterium acnes": {"system": "Propionibacterium acnes", "conditions": "Cutibacterium acnes, Gram-positive"}, "[2]": {"system": "Ofloxacin-resistant Staphylococcus aureus", "conditions": "antibiotic-resistant organisms"}, "[3]": {"system": "Gentamycin-resistant Staphylococcus aureus", "conditions": "antibiotic-resistant organisms"}, "[4]": {"system": "Gentamycin-resistant Pseudomonas aeruginosa", "conditions": "antibiotic-resistant organisms"}, "[5]": {"system": "Penicillin-resistant Streptococcus pneumoniae", "conditions": "antibiotic-resistant organisms"}},
  "data": [
    {"compound": "CCn1cc(C(=O)O)c(=O)c2cc(F)c(N3CCNCC3)cc21", "note": "[Norfloxacin]", "values": [
      {"measurement": "MIC90", "setting": "Moraxella species", "value": 0.25, "unit": "µg/mL"},
      {"measurement": "MIC90", "setting": "Pseudomonas aeruginosa", "value": 4, "unit": "µg/mL"},
      {"measurement": "MIC90", "setting": "Haemophilus influenzae", "value": "≤ 0.06", "unit": "µg/mL"},
      {"measurement": "MIC90", "setting": "Staphylococcus aureus", "value": "> 128", "unit": "µg/mL"},
      {"measurement": "MIC90", "setting": "[1]", "value": 128, "unit": "µg/mL"},
      {"measurement": "MIC90", "setting": "Streptococcus pneumoniae", "value": 8, "unit": "µg/mL"},
      {"measurement": "MIC90", "setting": "Corynebacterium species", "value": 16, "unit": "µg/mL"},
      {"measurement": "MIC90", "setting": "Propionibacterium acnes", "value": 4, "unit": "µg/mL"},
      {"measurement": "MIC90", "setting": "[2]", "value": "> 128", "unit": "µg/mL"},
      {"measurement": "MIC90", "setting": "[3]", "value": 128, "unit": "µg/mL"},
      {"measurement": "MIC90", "setting": "[4]", "value": 128, "unit": "µg/mL"},
      {"measurement": "MIC90", "setting": "[5]", "value": 8, "unit": "µg/mL"}
    ]}
  ]
}
